According to ChEMBL document CHEMBL5291721, “A preclinical secondary pharmacology resource illuminates target-adverse drug reaction associations of marketed drugs” (Nat Commun, 2023):

Tests used:
[1] = target: Vasopressin V1a receptor (Homo sapiens, UniProt P37288)
[2] = target: Vasopressin V2 receptor (Homo sapiens, UniProt P30518)
[3] = target: T1, 5-hydroxytryptamine receptor 2B (Homo sapiens, UniProt P41595); format: functional, cell-based
[4] = target: Glutamate receptor ionotropic, NMDA 1 (Rattus norvegicus, UniProt P35439)
[5] = target: Motilin receptor (Homo sapiens, UniProt O43193)
Motilin receptor, sequence (O43193 whole entry): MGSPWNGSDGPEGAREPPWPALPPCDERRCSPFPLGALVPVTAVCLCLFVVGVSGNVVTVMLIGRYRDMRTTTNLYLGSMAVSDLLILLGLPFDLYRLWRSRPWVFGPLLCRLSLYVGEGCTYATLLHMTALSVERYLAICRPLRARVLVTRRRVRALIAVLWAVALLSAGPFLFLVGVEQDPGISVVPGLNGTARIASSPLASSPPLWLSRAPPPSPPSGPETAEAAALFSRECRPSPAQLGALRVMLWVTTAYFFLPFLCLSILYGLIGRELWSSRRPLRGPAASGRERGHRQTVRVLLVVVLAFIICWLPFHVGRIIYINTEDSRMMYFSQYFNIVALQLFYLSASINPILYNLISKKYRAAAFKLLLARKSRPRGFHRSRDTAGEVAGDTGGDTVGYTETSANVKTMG

[6] = target: T2, Alpha-2A adrenergic receptor (Homo sapiens, UniProt P08913); format: functional, cell-based
T2 sequence (P08913 whole entry): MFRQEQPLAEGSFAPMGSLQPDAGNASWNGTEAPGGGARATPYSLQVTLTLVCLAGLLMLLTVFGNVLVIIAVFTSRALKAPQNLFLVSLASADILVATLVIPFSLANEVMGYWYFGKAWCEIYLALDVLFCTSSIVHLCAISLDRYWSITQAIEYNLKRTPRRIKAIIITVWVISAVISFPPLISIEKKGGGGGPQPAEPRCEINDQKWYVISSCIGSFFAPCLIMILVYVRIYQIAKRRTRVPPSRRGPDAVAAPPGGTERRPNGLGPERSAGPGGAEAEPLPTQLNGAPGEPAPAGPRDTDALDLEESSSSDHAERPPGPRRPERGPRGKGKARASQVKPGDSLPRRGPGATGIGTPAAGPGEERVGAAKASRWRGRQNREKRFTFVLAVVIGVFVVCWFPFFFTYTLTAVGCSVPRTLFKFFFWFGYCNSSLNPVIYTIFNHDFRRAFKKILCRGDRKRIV

[7] = target: T3, Prostaglandin G/H synthase 1 (Rattus norvegicus, UniProt Q63921); format: functional
T3 sequence (Q63921 whole entry): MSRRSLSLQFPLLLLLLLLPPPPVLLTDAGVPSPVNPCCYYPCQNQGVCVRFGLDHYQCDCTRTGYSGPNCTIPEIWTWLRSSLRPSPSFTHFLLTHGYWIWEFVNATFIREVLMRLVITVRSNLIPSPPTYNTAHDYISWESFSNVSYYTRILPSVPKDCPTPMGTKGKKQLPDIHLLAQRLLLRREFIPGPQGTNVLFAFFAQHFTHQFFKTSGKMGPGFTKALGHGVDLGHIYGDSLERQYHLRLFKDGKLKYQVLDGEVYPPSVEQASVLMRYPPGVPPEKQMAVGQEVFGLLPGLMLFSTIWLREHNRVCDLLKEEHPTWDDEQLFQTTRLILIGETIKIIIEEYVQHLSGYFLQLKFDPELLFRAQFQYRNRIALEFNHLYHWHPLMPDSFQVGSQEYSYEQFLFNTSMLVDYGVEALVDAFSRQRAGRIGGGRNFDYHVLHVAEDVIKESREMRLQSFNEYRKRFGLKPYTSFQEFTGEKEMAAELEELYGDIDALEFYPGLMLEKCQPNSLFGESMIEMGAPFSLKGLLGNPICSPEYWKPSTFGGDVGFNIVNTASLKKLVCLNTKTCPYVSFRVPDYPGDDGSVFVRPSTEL

[8] = target: T1, 5-hydroxytryptamine receptor 2B; format: functional, cell-based; remark: listed apart in the source
[9] = target: T4, Adenosine receptor A1 (Homo sapiens, UniProt P30542)
T4 sequence (P30542 whole entry): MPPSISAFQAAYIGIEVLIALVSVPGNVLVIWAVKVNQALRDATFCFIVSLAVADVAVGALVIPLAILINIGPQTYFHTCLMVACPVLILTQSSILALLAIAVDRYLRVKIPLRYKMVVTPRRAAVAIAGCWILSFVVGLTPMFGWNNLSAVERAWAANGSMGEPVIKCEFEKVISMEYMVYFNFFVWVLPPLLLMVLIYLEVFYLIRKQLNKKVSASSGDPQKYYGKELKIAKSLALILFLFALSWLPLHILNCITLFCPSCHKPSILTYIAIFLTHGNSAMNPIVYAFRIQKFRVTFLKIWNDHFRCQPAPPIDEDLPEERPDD

[10] = target: T5, 5-hydroxytryptamine receptor 3A (Homo sapiens, UniProt P46098); format: functional
T5 sequence (P46098 whole entry): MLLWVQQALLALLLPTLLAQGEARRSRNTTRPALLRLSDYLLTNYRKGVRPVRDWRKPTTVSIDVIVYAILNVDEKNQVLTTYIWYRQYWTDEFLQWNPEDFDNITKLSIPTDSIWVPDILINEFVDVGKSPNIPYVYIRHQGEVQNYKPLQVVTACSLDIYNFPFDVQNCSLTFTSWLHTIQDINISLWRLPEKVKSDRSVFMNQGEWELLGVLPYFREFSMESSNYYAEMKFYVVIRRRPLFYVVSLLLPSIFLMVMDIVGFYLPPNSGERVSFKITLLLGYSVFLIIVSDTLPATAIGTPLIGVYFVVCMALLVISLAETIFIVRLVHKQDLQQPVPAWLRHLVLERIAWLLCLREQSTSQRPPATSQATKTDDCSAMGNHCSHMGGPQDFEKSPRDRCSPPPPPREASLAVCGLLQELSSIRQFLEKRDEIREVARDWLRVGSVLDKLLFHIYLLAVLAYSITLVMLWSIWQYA

[11] = target: T6, Type-1 angiotensin II receptor (Homo sapiens, UniProt P30556)
T6 sequence (P30556 whole entry): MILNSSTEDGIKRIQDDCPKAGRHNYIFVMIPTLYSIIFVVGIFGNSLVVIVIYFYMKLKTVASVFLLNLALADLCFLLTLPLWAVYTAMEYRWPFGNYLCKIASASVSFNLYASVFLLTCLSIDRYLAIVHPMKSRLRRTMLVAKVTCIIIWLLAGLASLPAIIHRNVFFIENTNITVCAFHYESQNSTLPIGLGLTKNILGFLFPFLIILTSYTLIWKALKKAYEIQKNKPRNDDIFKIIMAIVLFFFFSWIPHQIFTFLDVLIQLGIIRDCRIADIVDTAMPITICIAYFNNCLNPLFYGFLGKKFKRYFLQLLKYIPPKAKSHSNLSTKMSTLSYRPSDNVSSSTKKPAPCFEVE

[12] = target: Sodium-dependent noradrenaline transporter (Homo sapiens, UniProt P23975)
Sodium-dependent noradrenaline transporter, sequence (P23975 whole entry): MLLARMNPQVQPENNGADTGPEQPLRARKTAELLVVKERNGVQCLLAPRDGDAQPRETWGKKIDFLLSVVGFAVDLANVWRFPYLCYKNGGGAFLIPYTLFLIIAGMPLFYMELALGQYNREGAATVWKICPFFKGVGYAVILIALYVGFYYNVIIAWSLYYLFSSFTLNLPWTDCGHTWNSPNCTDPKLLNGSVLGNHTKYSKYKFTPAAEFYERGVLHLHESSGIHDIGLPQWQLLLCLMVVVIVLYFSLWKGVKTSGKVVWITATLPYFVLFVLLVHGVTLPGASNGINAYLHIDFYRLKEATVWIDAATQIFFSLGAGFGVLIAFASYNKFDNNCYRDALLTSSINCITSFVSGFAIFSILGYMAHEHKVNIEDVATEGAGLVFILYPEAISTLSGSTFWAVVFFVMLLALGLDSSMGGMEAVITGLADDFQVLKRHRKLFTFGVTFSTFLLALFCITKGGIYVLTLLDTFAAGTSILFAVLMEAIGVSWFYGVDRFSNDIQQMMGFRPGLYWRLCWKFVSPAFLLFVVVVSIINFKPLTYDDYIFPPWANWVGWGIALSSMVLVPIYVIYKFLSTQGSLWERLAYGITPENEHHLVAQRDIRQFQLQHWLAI

Measured: AC50
Note: assay procedure not described here.

T1 sequence (P41595 whole entry): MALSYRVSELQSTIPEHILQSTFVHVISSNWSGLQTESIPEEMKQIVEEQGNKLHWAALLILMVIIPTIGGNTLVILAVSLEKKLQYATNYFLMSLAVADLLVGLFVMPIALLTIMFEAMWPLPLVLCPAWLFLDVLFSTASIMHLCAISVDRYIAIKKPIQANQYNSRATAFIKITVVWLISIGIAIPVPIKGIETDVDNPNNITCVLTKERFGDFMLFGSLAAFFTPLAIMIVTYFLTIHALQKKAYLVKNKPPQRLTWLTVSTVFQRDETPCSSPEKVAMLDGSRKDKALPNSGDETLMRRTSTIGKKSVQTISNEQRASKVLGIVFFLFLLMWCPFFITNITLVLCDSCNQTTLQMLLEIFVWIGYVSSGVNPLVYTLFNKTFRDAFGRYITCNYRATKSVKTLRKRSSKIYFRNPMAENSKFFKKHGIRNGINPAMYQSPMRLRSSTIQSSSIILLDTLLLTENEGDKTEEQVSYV
Vasopressin V1a receptor, sequence (P37288 whole entry): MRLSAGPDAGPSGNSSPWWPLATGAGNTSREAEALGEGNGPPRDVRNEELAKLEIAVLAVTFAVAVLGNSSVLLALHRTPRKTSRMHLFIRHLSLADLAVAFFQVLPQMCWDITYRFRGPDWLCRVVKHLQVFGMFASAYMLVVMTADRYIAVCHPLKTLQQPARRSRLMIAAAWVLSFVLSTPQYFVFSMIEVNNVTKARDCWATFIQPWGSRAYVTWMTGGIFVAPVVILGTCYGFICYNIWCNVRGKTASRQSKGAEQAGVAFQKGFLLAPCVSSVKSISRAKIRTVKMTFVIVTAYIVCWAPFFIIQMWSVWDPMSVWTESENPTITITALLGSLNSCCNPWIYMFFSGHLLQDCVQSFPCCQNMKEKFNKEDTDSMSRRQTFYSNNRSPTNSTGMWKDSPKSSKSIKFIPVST
Vasopressin V2 receptor, sequence (P30518 whole entry): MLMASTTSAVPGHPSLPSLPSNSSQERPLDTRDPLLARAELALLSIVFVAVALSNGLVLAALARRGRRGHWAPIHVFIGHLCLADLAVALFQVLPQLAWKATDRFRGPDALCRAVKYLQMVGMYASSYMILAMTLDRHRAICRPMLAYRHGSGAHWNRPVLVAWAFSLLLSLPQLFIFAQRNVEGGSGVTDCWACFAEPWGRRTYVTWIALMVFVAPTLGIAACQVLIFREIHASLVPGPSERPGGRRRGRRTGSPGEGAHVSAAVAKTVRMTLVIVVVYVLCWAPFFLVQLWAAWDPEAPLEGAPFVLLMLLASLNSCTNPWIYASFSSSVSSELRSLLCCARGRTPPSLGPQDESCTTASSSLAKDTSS

CC(=O)SC[C@@H](C)C(=O)N1CCC[C@H]1C(=O)N[C@@H](Cc1ccccc1)C(=O)O
> 30 µM: all assays above

C#CCOc1ccc(N)cc1C(=O)NCCCC [PARSALMIDE]
2.3 µM: [7]
> 30 µM: all other assays above

OCc1cc(C(O)CNCCCCCCOCCCCc2ccccc2)ccc1O (stereo not drawn) [SALMETEROL]
> 10 µM: [4] | [5] | [6] | [8]
12 µM: [3]
4.3 µM: [12]
not listed: [1]
> 30 µM: all other assays above

CC1=C(C)C(=O)C(C(CCCCCC(=O)O)c2ccccc2)=C(C)C1=O (stereo not drawn) [SERATRODAST]
1.14 µM: [7]
> 30 µM: all other assays above

Nc1cc(-c2ccncc2)c[nH]c1=O [INAMRINONE]
> 10 µM: [3] | [4] | [5] | [6] | [8]
not listed: [1]
> 30 µM: all other assays above

CN(C(=O)c1c(O)c2ccccc2n(C)c1=O)c1ccccc1 [ROQUINIMEX]
> 30 µM: [7] | [12]

Cc1ncc2n1-c1ccc(Cl)cc1C(c1ccccc1F)=NC2 [MIDAZOLAM]
> 10 µM: [3] | [4] | [5] | [6] | [8]
not listed: [1]
> 30 µM: all other assays above

CC(=O)[C@]1(O)Cc2c(O)c3c(c(O)c2[C@@H](O[C@H]2C[C@H](N)[C@H](O)[C@H](C)O2)C1)C(=O)c1ccccc1C3=O [IDARUBICIN]
> 30 µM: [1] | [4] | [7] | [11]
8.7 µM: [12]
13 µM: [10]
> 10 µM: [2] | [5] | [9]

O=C(O)CCNC(=O)c1ccccc1 [BETAMIPRON]
> 10 µM: [7]
not listed: [1]
> 30 µM: all other assays above

O=C(O)c1ccccc1Nc1cc(Cl)ccc1C(=O)O [LOBENZARIT]
25 µM: [4]
not listed: [7]
> 30 µM: all other assays above

C/C(=C\C(=O)OCCCCCCCCC(=O)O)C[C@@H]1OC[C@H](C[C@@H]2O[C@H]2[C@@H](C)[C@H](C)O)[C@@H](O)[C@H]1O [MUPIROCIN]
> 30 µM: [10] | [12]
not listed: [1]
> 10 µM: all other assays above

NC1CCN(c2nc3c(cc2F)c(=O)c(C(=O)O)cn3-c2ccc(F)cc2F)C1 (stereo not drawn) [TOSUFLOXACIN]
> 10 µM: [7]
not listed: [1]
> 30 µM: all other assays above

Cn1c(=O)cc(N2CCC[C@@H](N)C2)n(Cc2ccccc2C#N)c1=O [ALOGLIPTIN]
> 30 µM: [2] | [7] | [9] | [11]
> 10 µM: [1] | [4] | [5] | [10] | [12]

COc1cc2ncnc(Nc3ccc(F)c(Cl)c3)c2cc1NC(=O)/C=C/CN1CCCCC1 [DACOMITINIB ANHYDROUS]
> 30 µM: [7]
14 µM: [12]

Cn1cnc2c(F)c(Nc3ccc(Br)cc3Cl)c(C(=O)NOCCO)cc21 [SELUMETINIB]
> 30 µM: [7] | [12]

NC(=O)CN1CCCC1=O
not listed: [1]
> 30 µM: all other assays above

CCN1CCCC1CNC(=O)c1cc(S(=O)(=O)CC)c(N)cc1OC (stereo not drawn) [AMISULPRIDE]
29 µM: [7]
13 µM: [6]
> 30 µM: [2] | [4] | [9] | [10] | [11] | [12]

O=C1CN=C(c2ccccc2)c2cc([N+](=O)[O-])ccc2N1 [NITRAZEPAM]
> 30 µM: [10] | [11]
not listed: [1]
> 10 µM: all other assays above

CCN(CC)CCN1C(=O)CN=C(c2ccccc2F)c2cc(Cl)ccc21 [FLURAZEPAM]
20 µM: [10]
> 10 µM: [3] | [4] | [5] | [6] | [8]
not listed: [1]
> 30 µM: all other assays above
